Laboratory results published in patent US6548540B2, “Method of treating cancer using dithiocarbamate derivatives” (Charlotte-Mecklenburg Hospital Authority, priority 1998, dated 2003).

Legend:
M1619 melanoma cells = experiment: Apoptosis by TdT 3'-OH fluorescein end-labeling of DNA fragments; type: cell-based, human; conditions: 5 μM disulfiram; 15 hours
Method: To determine whether disulfiram induced apoptosis, cells grown to confluence on 35 mm Petri dishes or on glass slides were treated with disulfiram or DMSO as vehicle. Apoptosis was studied by terminal deoxynucleotidyl transferase (TdT) dependent 3′-OH fluorescein end-labeling of DNA fragments, using a Fluorescein-FragEL™ DNA fragmentation detection kit (Oncogene Research Products, Cambridge, Mass.). Apoptosis was also studied by visually assessing endonuclease dependent DNA fragmentation on ethidium bromide-stained agarose gels.
In FIG. 5A, M1619 melanoma cells treated with DMSO vehicle. In FIG. 5B, M1619 melanoma cells treated with 5 μM disulfiram. […] Cells were grown to confluence on 35 mm Petri dishes or on glass slides and treated for 15 hours with disulfiram or DMSO as vehicle. Apoptosis was studied by terminal deoxynucleotidyl transferase (TdT) dependent 3′-OH fluorescein end-labeling of DNA fragments, using a Fluorescein-FragEL™ DNA fragmentation detection kit (Oncogene Research Products, Cambridge, Mass.).

[1] = system: H520 lung carcinoma cells; experiment: Trypan blue cytotoxicity, H520; type: cell-based, human; conditions: 0.625 μM disulfiram; 36 hours
Method: To assess for cytotoxicity, cells were plated at a density of 50,000 per well on 24 well plates and grown for 24 hours. Disulfiram was then added. After an additional 36 hours, medium was removed and replaced with DPBS containing 0.1% trypan blue. Cell death was assessed by counting the average number of trypan blue positive cells per 10×field in 5 random fields for 4 separate wells.

[2] = system: Small cell lung carcinoma NCI-H82; experiment: MTT proliferation assay, small cell lung carcinoma; type: cell-based; conditions: Homo sapiens, treatment initially, after 48 hours, 10% FBS, read-out: Mean Percent Inhibition of Growth
Method: Human malignant cell lines were obtained from American Type Tissue Culture Collection (Rockville, Md.). Melanoma cells lines CRL 1585 and 1619 were cultured in RPMI 1640 (GIBCO-BRL, Life Technologies, Grand Island, N.Y.) with 10% FBS and passed with nonenzymatic Cell Dissociation Solution® (Sigma). The prostate adenocarcinoma cell line CRL 1435 (PC-3) was also cultured in RPMI 1640 with 10% FBS but passed with 0.05% trypsin and 0.53 mM EDTA. The squamous lung carcinoma NCI-H520 and the adenosquamous lung carcinoma NCI-H596 cell lines were grown in RPMI 1640 supplemented with 10% FBS, 10 mM HEPES and 1.0 mM sodium pyruvate and passed with trypsin/EDTA. The small cell lung carcinoma NCI-H82 was cultured as a suspension in RPMI 1640 with 10% FBS. All of the above were grown in a 37° C. humidified environment containing 5% CO2/air. The breast carcinoma cell line MDA-MB-453 was grown in a 37° C. humidified environment with free gas exchange with atmospheric air using Leibovitz's L-15 medium with 2 mM L-glutamine and 10% FBS and was passed with trypsin/EDTA.
The effect of disulfiram (0.15 to 5.0 μM), diethyldithiocarbamate (DDC, 1.0 μM) or PDTC (0.625 to 5.0 μM) on proliferation of malignant cell lines was studied in cultures stimulated with 10% FBS. Cell numbers were quantitated 24-72 hours later. In some experiments disulfiram or PDTC were added immediately after cells were plated. In other experiments, cells were plated and allowed to grow for 24-72 hours before fresh media with disulfiram or PDTC was added, and cell numbers were assayed 24-72 hours later. […]
Proliferation of cultured cells was quantitated using a previously reported calorimetric method based upon metabolic reduction of the soluble yellow tetrazolium dye 3-[4,5-dimethylthiazol]-2yl-2,5-diphenyl tetrazolium bromide (MTT) to its insoluble purple formazan by the action of mitochondrial succinyl dehydrogenase (See, e.g., S. J. Hirst, et al., “Quantifying proliferation of cultured human and rabbit airway smooth muscle in response to serum and platelet derived growth factor,” Am. J. Respir. Cell Mol. Biol. 7:574-581 (1992); R. Dashtaki, et al. R., supra; S. S. Brar, et al., “Requirement for reactive oxygen species in serum-induced and platelet-derived growth factor-induced growth of airway smooth muscle,” J. Biol. Chem. 274:20017-20026 (1999)). […] MTT-containing medium was removed, 0.5 ml dimethylsulfoxide (DMSO) was added to each well, and the absorbance of the solubilized purple formazan dye was measured at 540 nm. […]

M1619 cells = experiment: Intracellular reactive oxygen species, dichlorofluorescin probe; type: cell-based, human
Method: Potential redox effects of disulfiram were studied in three sets of experiments. The importance of cellular glutathione (GSH) in mediating or modulating thiocarbamate toxicity was studied by measuring levels of intracellular GSH after treatment with disulfiram. […] Also, to assess whether a nonspecific antioxidant effect of disulfiram or PDTC might account for cellular growth inhibition, we studied the effect of the potent lipophilic antioxidant probucol (1.0 to 1,000 μM) on proliferation of malignant cell lines. […] A. Royall, et al., “Evaluation of 2′,7′-dichlorofluorescin and dihydrorhodamine 123 as fluorescent probes for intracellular H2O2 in cultured endothelial cells,” Archiv. Biochem. Biophys. 302:348-355 (1993)). […] Cells were plated in 24 well plastic plates at 50,000 cells per well and grown to confluence. Media was aspirated from wells and replaced with 100 μl medium containing 10 μM DCF-DA, and plates were incubated at 37° C. for 30 minutes. The DCF-DA containing media was aspirated, cells were washed twice with media alone and 100 μl fresh media was added to wells. […] The relative concentration of dichlorofluroescein was measured immediately by monitoring fluorescence at 37° C. using an excitation wavelength of 485 nm and emission wavelength of 535 nm.

With `CCN(CC)C(=S)SSC(=S)N(CC)CC` [Disulfiram, tetraethylthiuram disulfide] the “3'-OH fluorescein end-labeling of DNA fragments (apoptosis)” value (M1619 melanoma cells) was “markedly increases”, the “trypan blue positive cells” value [1] was 94±18 trypan blue positive cells per well and the inhibition at 0.625 µM ([2]; disulfiram 0.625 μM) was 68 ± 3%. The inhibition at 1.25 µM ([2]; disulfiram 1.25 μM) was 76 ± 6%, the inhibition at 2.5 µM ([2]; disulfiram 2.5 μM) was 76 ± 5% and the inhibition at 5 µM ([2]; disulfiram 5.0 μM) was 72 ± 3%. For the same molecule, the “generation of reactive oxygen species (dichlorofluorescein fluorescence vs baseline)” value (M1619 cells; 1.25 μM disulfiram and 0.2 to 1.6 μM CuSO4) was “not increased” and the “generation of reactive oxygen species (dichlorofluorescein fluorescence vs baseline)” value (M1619 cells; disulfiram 0.625 to 5 μM) was “not increased”.
